The subject of assay [1] is acute leukemia with MLLr or NPM1m. Description: Phase 1/2 clinical study, clinical activity (responses by ELN 2017). The assay is classed as in vivo, human. Here is the method:
In the present test, signs of clinical activity have been observed, including decreases and normalization of bone marrow blasts, elimination of blasts in peripheral blood, and responses according to European LeukemiaNet 2017 Response Criteria. A patient with MLLr assigned to 120 mg BID in Arm A achieved MLFS (morphologic leukemia-free state), while a patient with MLLr assigned to 60 mg BID with azoles in Arm B achieved CRh (complete remission with partial hematological recovery) and CRi (complete remission with incomplete hematologic recovery). Substantial changes in several biomarkers have also been observed, including decreases in HOXA9, PBX3, and MEIS1, and increases in CD11b. These changes have been particularly notable in patients with MLLr or NPM1m.
(1) Of 43 patients enrolled, 17 patients had MLLr and 9 patients had NPM1m, with 19 evaluable at the time of data extraction and 5 responders per ELN 2017 (FIG. 7A). At 200 mg BID in Arm B, 4 evaluable patients had MLLr or NPM1m (n=1 and 3, respectively) and 1 patient achieved CRh/CRi, 1 patient achieved CRi, and 1 patient achieved MLFS. Two additional patients with MLLr also achieved response per ELN2017 at lower dose levels (CRh/CRi and MLFS).

Assay [2] relates to MOLM-13 cells. Briefly: Tumor-bearing mice transplanted with MOLM-13 cells, with gilteritinib, T/C (Example 12). As to conditions: MOLM-13 tumor-bearing mice, oral, 18 days. Format: in vivo. How it is done: The antitumor effects of the present compound and gilteritinib were evaluated. The present compound was weighed and dissolved in 0.5 w/v % Methyl Cellulose 400 solution to give the compound concentrations of 20 mg/mL and 10 mg/mL. Gilteritinib was weighed and suspended in 0.5 w/v % Methyl Cellulose 400 solution to give the compound concentrations of 3 mg/mL.
MOLM-13 cells (DSMZ) were intradermally implanted around the ventral region of 5-week old NOD. CB17-PrkdcSCID/J mice (female, The Jackson Laboratory Japan) at 1×10^6 cells/mouse. After confirming the engraftment of MOLM-13 cells 6 days after the transplantation, the present compound was orally administered to the mice at a dose of 100 mg/kg or 200 mg/kg, and gilteritinib was orally administered to the mice at a dose of 30 mg/kg, once a day for 18 days. The tumor volume was measured over time from the start of the administration, and the reduction effect of the tumor volume due to the compound-administration was evaluated. The tumor volume was calculated by the following formula using short axis and long axis of the tumor measured with an electronic caliper (Mitutoyo).
(§1) The control administration group in which only the solvent was administered and the test substance administration group were compared, and T/C was calculated using the following formula to evaluate the antitumor effect.

The subject of assay [3] is OCI-AML3 cells. Briefly: Tumor-bearing mice transplanted with OCI-AML3 cells, with cytarabine and daunorubicin, T/C (Example 14). Format: in vivo. As to conditions: oral, 21 days. Here is the method: Cytarabine (Cylocide Injection 200 mg/10 mL, Nippon Shinyaku Co., Ltd.) was diluted with saline (Otsuka Saline Injection, Otsuka Pharmaceutical Factory Co., Ltd.) to 8 mg/mL. Daunorubicin (Daunomycin for injection 20 mg, Meiji, Seika Pharma Co., Ltd.) was dissolved in saline (Otsuka Saline Injection, Otsuka Pharmaceutical Factory Co., Ltd.) to 0.2 mg/mL.
OCI-AML3 cells (DSMZ) were intradermally implanted around the ventral region of 7-week old NOD. CB17-PrkdcSCID/J mice (female, The Jackson Laboratory Japan) at 1×10^6 cells/mouse. […] Cytarabine was intraperitoneally administered to the mice at a dose of 80 mg/kg once a day for 5 days. Daunorubicin was intravenously administered to the mice at a dose of 1 mg/kg once a day for 3 days. The tumor volume was measured over time from the start of the administration, and the reduction effect of the tumor volume due to the compound-administration was evaluated. The tumor volume was calculated by the following formula using short axis and long axis of the tumor measured with an electronic caliper (Mitutoyo).
as §1

The mark [4] stands for this setting: 200 mg BID Arm B, 4 evaluable patients with MLLr or NPM1m.

`C=C1C[C@@H]2CC[C@H]1[C@@H](C(=O)N1CCC3(CC1)CN(c1ncncc1Oc1ccc(F)cc1C(=O)N(C(C)C)C(C)C)C3)N2` [the present compound, 5-fluoro-2-[(4-{7-[(1S,3S,4R)-5-methylidene-2-azabicyclo[2.2.2]octane-3-carbonyl]-2,7-diazaspiro[3.5]nonan-2-yl}pyrimidin-5-yl)oxy]-N,N-di(propan-2-yl)benzamide]: the “patients who achieved CRh/CRi” value in assay [1] (setting [4]) is 1 patient. Moreover, the “patients who achieved CRi” value in assay [1] (setting [4]) is on record as 1 patient. Further, in assay [1] (setting [4]), the “patients who achieved MLFS” value worked out at 1 patient. Besides, the “response achieved (ELN 2017)” value in assay [1] (a patient with MLLr, 60 mg BID with azoles Arm B) was “CRh and CRi”. Also, the T/C in assay [2] (100 mg/kg) is 43.8%; in assay [2] (200 mg/kg) it was 1.8%; in assay [3] (100 mg/kg), 53.1%; in assay [3] (200 mg/kg), 41.7%.

As usually defined, the T/C is the ratio of treated to control.

(Values after patent publication US20260248787A9, “MEDICAMENT FOR TREATING CANCER COMPRISING OPTICALLY ACTIVE AZABICYCLO RING DERIVATIVE” (Sumitomo Pharma Co., Ltd., priority 2023, published 2026).)
